Measurements taken from publication PMC10239507, “Development of allosteric and selective CDK2 inhibitors for contraception with negative cooperativity to cyclin binding” (Nature Communications, 2023).

Experiments:
Experiment in all cases: biochemical
[1] = biological target: T1, 371 kinases (kinase named in each endpoint) (Homo sapiens, UniProt Q15831); conditions: LKB1
T1 construct: purchased Reaction Biology

[2] = biological target: T2, 371 kinases (kinase named in each endpoint) (Homo sapiens, UniProt Q16513); conditions: PKN2/PRK2
T2 construct: purchased Reaction Biology

[3] = biological target: T3, 371 kinases (kinase named in each endpoint) (Homo sapiens, UniProt Q9H2G2); conditions: SLK/STK2
T3 construct: purchased Reaction Biology

[4] = biological target: T4, 371 kinases (kinase named in each endpoint) (Homo sapiens, UniProt P10721); conditions: C-KIT
T4 construct: purchased Reaction Biology

[5] = biological target: T5, 371 kinases (kinase named in each endpoint) (Homo sapiens, UniProt Q6P2M8); conditions: CAMK1B
T5 construct: purchased Reaction Biology

[6] = biological target: T6, 371 kinases (kinase named in each endpoint) (Homo sapiens, UniProt Q9Y2H1); conditions: STK38L/NDR2
T6 construct: purchased Reaction Biology

[7] = biological target: T7, 371 kinases (kinase named in each endpoint) (Homo sapiens, UniProt Q04771); conditions: ALK2/ACVR1
T7 construct: purchased Reaction Biology

[8] = biological target: T8, 371 kinases (kinase named in each endpoint) (Homo sapiens, UniProt O15264); conditions: P38D/MAPK13
T8 construct: purchased Reaction Biology

[9] = biological target: T9, 371 kinases (kinase named in each endpoint) (Homo sapiens, UniProt O94804); conditions: LOK/STK10
T9 construct: purchased Reaction Biology

[10] = biological target: T10, 371 kinases (kinase named in each endpoint) (Homo sapiens, UniProt P49759); conditions: CLK1
T10 construct: purchased Reaction Biology

[11] = biological target: T11, 371 kinases (kinase named in each endpoint) (Homo sapiens, UniProt Q86Z02); conditions: HIPK1
T11 construct: purchased Reaction Biology

[12] = biological target: T12, 371 kinases (kinase named in each endpoint) (Homo sapiens, UniProt P36897); conditions: ALK5/TGFBR1
T12 construct: purchased Reaction Biology

[13] = system: 371 kinases (kinase named in each endpoint); conditions: 10 µM
[14] = biological target: T13, 371 kinases (kinase named in each endpoint) (Homo sapiens, UniProt Q13554); conditions: CAMK2B
T13 construct: purchased Reaction Biology

[15] = biological target: T14, 371 kinases (kinase named in each endpoint) (Homo sapiens, UniProt P21802); conditions: FGFR2
T14 construct: purchased Reaction Biology

[16] = biological target: T15, 371 kinases (kinase named in each endpoint) (Homo sapiens, UniProt P25098); conditions: GRK2
T15 construct: purchased Reaction Biology

[17] = biological target: T16, 371 kinases (kinase named in each endpoint) (Homo sapiens, UniProt Q9Y3S1); conditions: WNK2
T16 construct: purchased Reaction Biology

[18] = biological target: T17, 371 kinases (kinase named in each endpoint) (Homo sapiens, UniProt Q96PN8); conditions: TSSK3/STK22C
T17 construct: purchased Reaction Biology

[19] = biological target: T18, 371 kinases (kinase named in each endpoint) (Homo sapiens, UniProt P53667); conditions: LIMK1
T18 construct: purchased Reaction Biology

[20] = biological target: T19, 371 kinases (kinase named in each endpoint) (Homo sapiens, UniProt P23458); conditions: JAK1
T19 construct: purchased Reaction Biology

[21] = biological target: T20, 371 kinases (kinase named in each endpoint) (Homo sapiens, UniProt Q15375); conditions: EPHA7
T20 construct: purchased Reaction Biology

[22] = biological target: T21, 371 kinases (kinase named in each endpoint) (Homo sapiens, UniProt Q32MK0); conditions: MYLK3
T21 construct: purchased Reaction Biology

[23] = biological target: T22, 371 kinases (kinase named in each endpoint) (Homo sapiens, UniProt Q96GD4); conditions: AURORA B
T22 construct: purchased Reaction Biology

[24] = biological target: T23, 371 kinases (kinase named in each endpoint) (Homo sapiens, UniProt P27361); conditions: ERK1
T23 construct: purchased Reaction Biology

[25] = biological target: T24, 371 kinases (kinase named in each endpoint) (Homo sapiens, UniProt Q9Y243); conditions: AKT3
T24 construct: purchased Reaction Biology

[26] = biological target: T25, 371 kinases (kinase named in each endpoint) (Homo sapiens, UniProt O94921); conditions: CDK14/CYCLIN Y (PFTK1)
T25 construct: purchased Reaction Biology

[27] = biological target: T26, 371 kinases (kinase named in each endpoint) (Homo sapiens, UniProt Q13557); conditions: CAMK2D
T26 construct: purchased Reaction Biology

[28] = biological target: T27, 371 kinases (kinase named in each endpoint) (Homo sapiens, UniProt P31749); conditions: AKT1
T27 construct: purchased Reaction Biology

[29] = biological target: T28, 371 kinases (kinase named in each endpoint) (Homo sapiens, UniProt P78362); conditions: SRPK2
T28 construct: purchased Reaction Biology

[30] = biological target: T29, 371 kinases (kinase named in each endpoint) (Homo sapiens, UniProt P50613); conditions: CDK7/CYCLIN H
T29 construct: purchased Reaction Biology

[31] = biological target: T30, 371 kinases (kinase named in each endpoint) (Homo sapiens, UniProt Q16566); conditions: CAMK4
T30 construct: purchased Reaction Biology

[32] = biological target: T31, 371 kinases (kinase named in each endpoint) (Homo sapiens, UniProt P42685); conditions: FRK/PTK5
T31 construct: purchased Reaction Biology

[33] = biological target: T32, 371 kinases (kinase named in each endpoint) (Homo sapiens, UniProt Q8N568); conditions: DCAMKL2
T32 construct: purchased Reaction Biology

[34] = biological target: T33, 371 kinases (kinase named in each endpoint) (Homo sapiens, UniProt P08069); conditions: IGF1R
T33 construct: purchased Reaction Biology

[35] = biological target: T34, 371 kinases (kinase named in each endpoint) (Homo sapiens, UniProt O75914); conditions: PAK3
T34 construct: purchased Reaction Biology

[36] = biological target: T35, 371 kinases (kinase named in each endpoint) (Homo sapiens, UniProt Q96RG2); conditions: PASK
T35 construct: purchased Reaction Biology

T19 sequence (P23458 whole entry): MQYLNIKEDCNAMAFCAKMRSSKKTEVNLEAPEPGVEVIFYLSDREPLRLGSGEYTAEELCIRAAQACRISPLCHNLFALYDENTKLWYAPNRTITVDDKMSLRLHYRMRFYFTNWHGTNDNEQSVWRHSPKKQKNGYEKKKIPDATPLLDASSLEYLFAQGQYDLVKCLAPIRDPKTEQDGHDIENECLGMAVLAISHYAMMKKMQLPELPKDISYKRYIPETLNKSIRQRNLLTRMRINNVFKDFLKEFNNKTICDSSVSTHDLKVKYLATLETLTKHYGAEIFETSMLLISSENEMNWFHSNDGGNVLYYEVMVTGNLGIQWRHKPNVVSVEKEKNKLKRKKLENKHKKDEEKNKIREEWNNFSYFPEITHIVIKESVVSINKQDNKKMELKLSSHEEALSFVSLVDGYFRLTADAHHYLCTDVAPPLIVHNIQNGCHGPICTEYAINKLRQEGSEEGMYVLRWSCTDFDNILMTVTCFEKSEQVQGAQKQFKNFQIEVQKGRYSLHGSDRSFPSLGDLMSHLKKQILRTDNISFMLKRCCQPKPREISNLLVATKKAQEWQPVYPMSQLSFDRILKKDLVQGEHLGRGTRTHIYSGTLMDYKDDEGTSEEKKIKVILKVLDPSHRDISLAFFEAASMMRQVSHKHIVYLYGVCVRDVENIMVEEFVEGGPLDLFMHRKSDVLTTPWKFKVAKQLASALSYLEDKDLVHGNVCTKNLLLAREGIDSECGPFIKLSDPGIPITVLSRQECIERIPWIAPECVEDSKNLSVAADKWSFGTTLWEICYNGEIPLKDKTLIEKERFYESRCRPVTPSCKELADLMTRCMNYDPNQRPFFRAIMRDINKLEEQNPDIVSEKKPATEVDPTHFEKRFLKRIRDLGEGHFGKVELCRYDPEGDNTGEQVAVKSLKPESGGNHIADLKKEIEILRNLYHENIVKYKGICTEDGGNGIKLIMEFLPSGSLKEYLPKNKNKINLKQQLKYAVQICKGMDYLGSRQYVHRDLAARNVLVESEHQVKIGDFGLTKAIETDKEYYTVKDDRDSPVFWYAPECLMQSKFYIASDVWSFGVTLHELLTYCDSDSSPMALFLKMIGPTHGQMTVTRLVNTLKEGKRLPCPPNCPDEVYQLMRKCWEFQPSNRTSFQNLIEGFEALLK
T11 sequence (Q86Z02 whole entry): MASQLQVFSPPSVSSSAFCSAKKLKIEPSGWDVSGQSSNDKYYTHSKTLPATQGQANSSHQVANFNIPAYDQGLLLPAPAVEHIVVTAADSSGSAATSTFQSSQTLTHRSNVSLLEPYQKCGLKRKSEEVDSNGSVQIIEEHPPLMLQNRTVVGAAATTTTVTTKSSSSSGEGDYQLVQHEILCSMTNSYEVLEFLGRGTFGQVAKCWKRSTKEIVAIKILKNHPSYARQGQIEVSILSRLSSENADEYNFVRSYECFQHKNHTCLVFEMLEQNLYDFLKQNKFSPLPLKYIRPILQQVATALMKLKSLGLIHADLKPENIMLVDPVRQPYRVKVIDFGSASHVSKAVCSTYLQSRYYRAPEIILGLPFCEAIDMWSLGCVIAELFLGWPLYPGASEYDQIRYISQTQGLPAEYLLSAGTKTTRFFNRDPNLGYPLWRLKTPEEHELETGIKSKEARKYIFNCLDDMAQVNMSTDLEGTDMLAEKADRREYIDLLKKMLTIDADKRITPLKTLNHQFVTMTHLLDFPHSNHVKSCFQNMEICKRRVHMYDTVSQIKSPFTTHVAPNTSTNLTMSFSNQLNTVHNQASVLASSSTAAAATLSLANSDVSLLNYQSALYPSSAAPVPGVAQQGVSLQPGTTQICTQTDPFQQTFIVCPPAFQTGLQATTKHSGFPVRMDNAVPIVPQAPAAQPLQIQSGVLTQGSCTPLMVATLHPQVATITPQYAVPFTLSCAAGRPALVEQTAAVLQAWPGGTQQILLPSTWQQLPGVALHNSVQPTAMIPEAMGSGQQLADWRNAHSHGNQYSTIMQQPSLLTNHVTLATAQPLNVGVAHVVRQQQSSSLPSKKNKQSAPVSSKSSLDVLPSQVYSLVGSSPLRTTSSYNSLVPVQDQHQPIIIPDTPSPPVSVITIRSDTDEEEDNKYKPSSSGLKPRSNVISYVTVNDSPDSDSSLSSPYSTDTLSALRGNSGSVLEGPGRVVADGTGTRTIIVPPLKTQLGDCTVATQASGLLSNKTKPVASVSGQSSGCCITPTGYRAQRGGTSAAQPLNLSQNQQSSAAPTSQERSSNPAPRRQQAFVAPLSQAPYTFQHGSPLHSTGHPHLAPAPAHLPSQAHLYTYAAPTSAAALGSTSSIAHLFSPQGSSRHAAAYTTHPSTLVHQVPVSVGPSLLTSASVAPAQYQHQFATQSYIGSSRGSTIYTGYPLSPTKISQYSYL
T4 sequence (P10721 26-976): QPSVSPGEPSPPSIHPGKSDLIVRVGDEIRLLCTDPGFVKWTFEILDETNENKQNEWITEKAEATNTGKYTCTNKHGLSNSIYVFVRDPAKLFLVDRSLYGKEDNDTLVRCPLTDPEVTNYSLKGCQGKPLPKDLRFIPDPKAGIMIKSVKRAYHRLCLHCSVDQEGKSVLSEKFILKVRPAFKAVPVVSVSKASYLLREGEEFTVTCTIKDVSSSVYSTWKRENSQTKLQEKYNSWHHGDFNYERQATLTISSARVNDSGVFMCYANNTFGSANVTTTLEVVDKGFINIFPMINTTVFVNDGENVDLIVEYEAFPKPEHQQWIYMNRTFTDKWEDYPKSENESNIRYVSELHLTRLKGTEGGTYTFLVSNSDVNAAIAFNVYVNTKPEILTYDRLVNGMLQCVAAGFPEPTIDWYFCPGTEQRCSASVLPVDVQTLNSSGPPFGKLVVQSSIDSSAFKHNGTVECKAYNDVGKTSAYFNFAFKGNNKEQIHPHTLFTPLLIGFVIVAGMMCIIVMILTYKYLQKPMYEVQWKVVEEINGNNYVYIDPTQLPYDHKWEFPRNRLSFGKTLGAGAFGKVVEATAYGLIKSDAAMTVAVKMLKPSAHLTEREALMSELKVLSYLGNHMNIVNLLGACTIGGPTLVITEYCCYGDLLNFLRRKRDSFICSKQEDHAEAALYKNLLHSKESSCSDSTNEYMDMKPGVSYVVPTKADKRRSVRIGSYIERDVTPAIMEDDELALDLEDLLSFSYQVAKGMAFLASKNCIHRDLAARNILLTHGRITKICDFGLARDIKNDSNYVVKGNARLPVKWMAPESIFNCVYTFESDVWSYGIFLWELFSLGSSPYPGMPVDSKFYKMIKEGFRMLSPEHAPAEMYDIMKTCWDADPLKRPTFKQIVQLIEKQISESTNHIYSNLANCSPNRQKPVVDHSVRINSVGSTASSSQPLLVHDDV
T2 sequence (Q16513 whole entry): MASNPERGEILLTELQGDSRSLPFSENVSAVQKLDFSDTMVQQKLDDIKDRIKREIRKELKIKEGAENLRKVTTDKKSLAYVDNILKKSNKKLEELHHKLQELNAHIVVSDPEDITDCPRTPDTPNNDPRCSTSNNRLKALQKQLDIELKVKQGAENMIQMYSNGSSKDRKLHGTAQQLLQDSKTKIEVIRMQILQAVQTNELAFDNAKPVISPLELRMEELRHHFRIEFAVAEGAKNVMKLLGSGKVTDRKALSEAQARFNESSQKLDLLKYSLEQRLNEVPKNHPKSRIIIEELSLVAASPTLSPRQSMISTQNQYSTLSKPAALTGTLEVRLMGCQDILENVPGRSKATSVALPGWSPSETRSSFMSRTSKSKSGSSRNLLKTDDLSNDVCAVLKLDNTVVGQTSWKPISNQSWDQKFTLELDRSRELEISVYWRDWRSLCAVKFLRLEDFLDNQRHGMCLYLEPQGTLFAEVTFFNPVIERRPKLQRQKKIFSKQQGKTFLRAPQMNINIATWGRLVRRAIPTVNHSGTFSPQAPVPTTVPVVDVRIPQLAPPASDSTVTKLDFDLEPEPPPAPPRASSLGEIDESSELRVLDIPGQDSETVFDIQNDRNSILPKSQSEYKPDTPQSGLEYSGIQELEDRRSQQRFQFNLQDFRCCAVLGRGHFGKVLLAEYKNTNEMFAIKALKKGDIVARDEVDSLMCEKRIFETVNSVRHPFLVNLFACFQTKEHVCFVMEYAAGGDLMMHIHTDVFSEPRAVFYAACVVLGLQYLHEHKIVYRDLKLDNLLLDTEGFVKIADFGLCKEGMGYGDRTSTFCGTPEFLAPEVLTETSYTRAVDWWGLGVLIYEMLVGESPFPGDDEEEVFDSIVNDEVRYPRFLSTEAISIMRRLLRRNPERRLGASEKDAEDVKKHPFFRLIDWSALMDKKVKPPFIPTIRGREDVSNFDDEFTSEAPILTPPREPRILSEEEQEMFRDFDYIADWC
T6 sequence (Q9Y2H1 whole entry): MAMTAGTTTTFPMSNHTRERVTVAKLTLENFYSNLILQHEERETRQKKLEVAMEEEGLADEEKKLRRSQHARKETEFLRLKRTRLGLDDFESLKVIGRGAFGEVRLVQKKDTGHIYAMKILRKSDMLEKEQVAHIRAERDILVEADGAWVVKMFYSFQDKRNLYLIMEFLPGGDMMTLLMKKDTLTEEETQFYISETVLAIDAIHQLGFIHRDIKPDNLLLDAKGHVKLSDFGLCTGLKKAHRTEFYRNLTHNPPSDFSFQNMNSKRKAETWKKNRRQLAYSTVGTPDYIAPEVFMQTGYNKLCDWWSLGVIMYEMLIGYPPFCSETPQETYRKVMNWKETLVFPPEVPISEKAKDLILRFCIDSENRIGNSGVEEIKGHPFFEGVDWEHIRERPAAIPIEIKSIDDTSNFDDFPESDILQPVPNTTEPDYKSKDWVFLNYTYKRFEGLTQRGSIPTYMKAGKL
T17 sequence (Q96PN8 whole entry): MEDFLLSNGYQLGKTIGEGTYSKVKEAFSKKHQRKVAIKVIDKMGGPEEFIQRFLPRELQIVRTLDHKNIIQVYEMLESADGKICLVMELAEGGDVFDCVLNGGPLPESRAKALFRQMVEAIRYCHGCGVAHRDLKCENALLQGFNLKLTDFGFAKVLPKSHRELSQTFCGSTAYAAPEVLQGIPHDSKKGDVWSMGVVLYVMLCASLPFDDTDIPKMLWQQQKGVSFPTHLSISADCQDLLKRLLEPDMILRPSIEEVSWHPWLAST

SMILES: O=C(O)c1cc(C(F)(F)F)ccc1NCCc1c[nH]c2cc(Br)ccc12 [Compound 5, 2-((2-(6-Bromo-1H-indol-3-yl)ethyl)amino)−5-(trifluoromethyl)benzoic Acid]
- activity at 10 µM [1]: 93.7 ± 1.8%
- activity at 10 µM [2]: 110 ± 1.7%
- activity at 10 µM [3]: 89.7 ± 3%
- activity at 10 µM [4]: 84.5 ± 2.5%
- activity at 10 µM [5]: 59.1 ± 0.7%
- activity at 10 µM [6]: 94 ± 0.9%
- activity at 10 µM [7]: 74.1 ± 1.8%
- activity at 10 µM [8]: 80.9 ± 2.2%
- activity at 10 µM [9]: 88.1 ± 0.3%
- activity at 10 µM [10]: 109.3 ± 0.4%
- activity at 10 µM [11]: 64.9 ± 0.2%
- activity at 10 µM [12]: 84.2 ± 0.1%
- inhibition of any kinase [13]: ≤ 80%
- share of the 371 kinases tested with >50% inhibition [13]: 4%
- % Activity ([13]; LYN B): 93.2 ± 0.3%
- % Activity ([13]; PKCB2): 100.1 ± 1.4%
- % Activity ([13]; PKG1B): 78.0 ± 0.4%
- activity at 10 µM [14]: 62.2 ± 0.8%
- activity at 10 µM [15]: 101.3 ± 0.5%
- activity at 10 µM [16]: 96.5 ± 0.4%
- activity at 10 µM [17]: 109.6 ± 0.2%
- activity at 10 µM [18]: 68.9 ± 0.2%
- activity at 10 µM [19]: 84.2%
- activity at 10 µM [20]: 67.7 ± 0.8%
- activity at 10 µM [21]: 82.8 ± 2.2%
- activity at 10 µM [22]: 90.9 ± 3.2%
- activity at 10 µM [23]: 34.9 ± 0.5%
- activity at 10 µM [24]: 99.7 ± 0.9%
- activity at 10 µM [25]: 90.2 ± 0.5%
- activity at 10 µM [26]: 114 ± 1.5%
- activity at 10 µM [27]: 78.3 ± 3.4%
- activity at 10 µM [28]: 93.4 ± 0.2%
- activity at 10 µM [29]: 95.1%
- activity at 10 µM [30]: 104 ± 3.6%
- activity at 10 µM [31]: 27.5 ± 6.5%
- activity at 10 µM [32]: 90.1 ± 1.1%
- activity at 10 µM [33]: 101.3 ± 0.6%
- activity at 10 µM [34]: 93.2 ± 0.1%
- activity at 10 µM [35]: 84 ± 0.9%
- activity at 10 µM [36]: 95.2 ± 2.9%
